Experiments:
[1] = system: woodchuck hepatitis virus (WHV); assay: Woodchuck model of chronic HBV infection (WHV DNA in serum); type: in vivo, woodchucks (Marmota monax)
Experimental: The efficacy of L-dA, L-dT and L-dC against hepadnavirus infection in woodchucks (Marmota monax) chronically infected with woodchuck hepatitis virus (WHV) was determined. This animal model of HBV infection is widely accepted and has proven to be useful for the evaluation of antiviral agents directed against HBV. Experimental groups (n=3 animals/drug group, n=4 animals/control) [table] Drugs were administered by oral gavage once daily, and blood samples taken on days 0, 1, 3, 7, 14, 21, 28, and on post-treatment days +1, +3, +7, +14, +28 and +56. Assessment of the activity and toxicity was based on the reduction of WHV DNA in serum: dot-blot, quantative PCR.

[2] = molecular target: T1, human DNA polymerase γ (Homo sapiens, UniProt P54098); assay: Inhibition of human DNA polymerase γ (Dixon plot, calf thymus activated DNA, dATP); type: biochemical; settings: calf thymus activated DNA as template-primer, dATP as substrate; read-out: DNA pol γ Ki
T1 sequence (P54098 1-1239): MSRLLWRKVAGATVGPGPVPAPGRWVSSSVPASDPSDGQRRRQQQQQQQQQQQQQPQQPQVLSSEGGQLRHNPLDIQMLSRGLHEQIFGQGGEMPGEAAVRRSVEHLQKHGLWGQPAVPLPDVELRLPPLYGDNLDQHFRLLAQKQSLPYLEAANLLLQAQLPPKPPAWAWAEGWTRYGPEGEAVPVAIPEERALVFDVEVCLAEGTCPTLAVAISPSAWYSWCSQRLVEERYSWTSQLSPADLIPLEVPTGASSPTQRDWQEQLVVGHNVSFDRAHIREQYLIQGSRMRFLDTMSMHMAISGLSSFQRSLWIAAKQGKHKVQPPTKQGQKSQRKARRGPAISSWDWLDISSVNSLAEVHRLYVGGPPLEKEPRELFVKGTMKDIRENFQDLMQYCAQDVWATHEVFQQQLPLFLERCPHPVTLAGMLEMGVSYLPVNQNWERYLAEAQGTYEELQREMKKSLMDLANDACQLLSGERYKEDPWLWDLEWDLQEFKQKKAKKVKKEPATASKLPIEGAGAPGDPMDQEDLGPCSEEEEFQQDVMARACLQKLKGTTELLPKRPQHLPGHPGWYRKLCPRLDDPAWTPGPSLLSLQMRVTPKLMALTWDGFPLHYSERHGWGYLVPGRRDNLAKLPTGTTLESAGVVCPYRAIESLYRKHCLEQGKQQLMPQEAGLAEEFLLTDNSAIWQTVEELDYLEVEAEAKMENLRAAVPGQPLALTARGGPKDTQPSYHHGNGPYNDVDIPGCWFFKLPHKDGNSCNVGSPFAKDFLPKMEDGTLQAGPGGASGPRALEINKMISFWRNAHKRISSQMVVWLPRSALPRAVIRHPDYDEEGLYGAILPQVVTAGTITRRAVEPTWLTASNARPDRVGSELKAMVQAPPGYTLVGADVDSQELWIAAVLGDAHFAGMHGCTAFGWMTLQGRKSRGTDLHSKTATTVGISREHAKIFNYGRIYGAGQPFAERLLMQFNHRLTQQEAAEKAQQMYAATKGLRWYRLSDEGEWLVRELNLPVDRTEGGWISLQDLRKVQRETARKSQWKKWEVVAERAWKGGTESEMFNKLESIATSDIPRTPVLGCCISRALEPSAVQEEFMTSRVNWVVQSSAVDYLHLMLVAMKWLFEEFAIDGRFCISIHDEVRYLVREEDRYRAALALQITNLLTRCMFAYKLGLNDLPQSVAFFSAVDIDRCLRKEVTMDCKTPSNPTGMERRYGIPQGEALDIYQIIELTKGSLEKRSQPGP

[3] = molecular target: T2, human DNA polymerase α (Homo sapiens, UniProt P09884); assay: Inhibition of human DNA polymerase α (Dixon plot, calf thymus activated DNA, dATP); type: biochemical; settings: calf thymus activated DNA as template-primer, dATP as substrate; read-out: DNA pol α Ki
T2 sequence (P09884 1-1462): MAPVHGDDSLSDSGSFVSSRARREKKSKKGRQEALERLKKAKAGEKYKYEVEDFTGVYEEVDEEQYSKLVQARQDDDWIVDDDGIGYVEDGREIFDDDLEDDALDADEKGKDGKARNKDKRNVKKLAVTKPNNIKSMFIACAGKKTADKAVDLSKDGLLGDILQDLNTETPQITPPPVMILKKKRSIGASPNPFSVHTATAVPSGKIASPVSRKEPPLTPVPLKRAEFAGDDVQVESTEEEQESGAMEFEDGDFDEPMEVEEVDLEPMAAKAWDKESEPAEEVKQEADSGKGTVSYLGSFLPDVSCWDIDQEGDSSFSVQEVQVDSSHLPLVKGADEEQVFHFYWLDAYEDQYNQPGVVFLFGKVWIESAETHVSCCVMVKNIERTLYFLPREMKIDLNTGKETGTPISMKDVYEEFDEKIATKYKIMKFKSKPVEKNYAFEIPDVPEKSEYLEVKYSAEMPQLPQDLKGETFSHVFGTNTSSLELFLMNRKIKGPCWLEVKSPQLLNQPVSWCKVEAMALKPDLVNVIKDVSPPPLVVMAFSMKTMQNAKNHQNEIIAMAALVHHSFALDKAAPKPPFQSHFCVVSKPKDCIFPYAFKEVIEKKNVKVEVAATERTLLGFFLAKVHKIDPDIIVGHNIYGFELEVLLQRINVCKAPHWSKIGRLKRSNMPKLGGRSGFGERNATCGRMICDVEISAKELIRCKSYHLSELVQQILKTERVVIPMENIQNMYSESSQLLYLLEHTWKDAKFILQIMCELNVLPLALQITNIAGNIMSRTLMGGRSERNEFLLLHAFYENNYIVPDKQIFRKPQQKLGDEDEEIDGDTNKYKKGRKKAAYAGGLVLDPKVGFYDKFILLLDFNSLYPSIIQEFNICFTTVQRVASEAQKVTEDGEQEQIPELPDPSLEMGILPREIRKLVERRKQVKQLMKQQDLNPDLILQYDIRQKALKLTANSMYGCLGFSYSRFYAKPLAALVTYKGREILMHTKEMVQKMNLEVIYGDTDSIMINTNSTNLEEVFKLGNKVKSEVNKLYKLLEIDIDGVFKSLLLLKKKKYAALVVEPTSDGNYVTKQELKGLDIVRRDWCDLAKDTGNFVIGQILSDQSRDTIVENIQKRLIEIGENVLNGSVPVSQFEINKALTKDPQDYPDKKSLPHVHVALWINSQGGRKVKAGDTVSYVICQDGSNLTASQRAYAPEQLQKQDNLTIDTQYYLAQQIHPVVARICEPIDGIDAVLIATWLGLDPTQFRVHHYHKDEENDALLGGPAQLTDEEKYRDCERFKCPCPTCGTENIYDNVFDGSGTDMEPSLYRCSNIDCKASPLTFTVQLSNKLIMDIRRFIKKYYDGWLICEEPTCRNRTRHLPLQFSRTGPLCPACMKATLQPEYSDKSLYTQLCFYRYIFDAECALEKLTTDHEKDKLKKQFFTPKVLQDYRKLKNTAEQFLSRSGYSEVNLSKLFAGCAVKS

[4] = molecular target: woodchuck hepatitis virus (WHV) DNA polymerase (Woodchuck hepatitis B virus, UniProt P03160); assay: Inhibition of woodchuck hepatitis virus (WHV) DNA polymerase by triphosphates
Sequence of woodchuck hepatitis virus (WHV) DNA polymerase (P03160 whole entry): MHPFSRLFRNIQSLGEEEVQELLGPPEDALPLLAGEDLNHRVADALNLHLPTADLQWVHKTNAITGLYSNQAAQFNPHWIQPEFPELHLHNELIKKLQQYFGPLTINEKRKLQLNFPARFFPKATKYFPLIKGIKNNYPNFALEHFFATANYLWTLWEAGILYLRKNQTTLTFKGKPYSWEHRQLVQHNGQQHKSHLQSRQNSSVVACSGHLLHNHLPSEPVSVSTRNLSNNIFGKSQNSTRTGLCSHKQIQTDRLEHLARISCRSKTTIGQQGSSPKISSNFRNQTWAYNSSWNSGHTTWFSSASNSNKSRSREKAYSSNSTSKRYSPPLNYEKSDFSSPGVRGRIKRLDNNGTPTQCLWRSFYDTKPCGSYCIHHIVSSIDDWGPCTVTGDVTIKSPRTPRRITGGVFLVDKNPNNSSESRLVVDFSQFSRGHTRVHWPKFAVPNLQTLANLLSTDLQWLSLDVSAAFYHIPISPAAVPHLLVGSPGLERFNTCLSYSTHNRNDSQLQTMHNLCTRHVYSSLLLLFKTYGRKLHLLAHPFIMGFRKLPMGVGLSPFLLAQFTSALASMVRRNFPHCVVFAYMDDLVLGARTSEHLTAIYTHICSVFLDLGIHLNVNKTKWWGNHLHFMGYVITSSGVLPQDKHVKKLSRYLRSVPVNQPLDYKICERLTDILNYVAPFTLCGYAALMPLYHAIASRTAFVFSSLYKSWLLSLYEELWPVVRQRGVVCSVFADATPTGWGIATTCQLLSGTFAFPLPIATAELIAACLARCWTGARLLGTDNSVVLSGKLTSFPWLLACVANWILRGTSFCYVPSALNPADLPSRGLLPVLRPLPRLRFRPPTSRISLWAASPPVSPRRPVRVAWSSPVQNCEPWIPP

[5] = molecular target: human DNA polymerase β (Homo sapiens, UniProt P06746); assay: Inhibition of human DNA polymerase β (Dixon plot, calf thymus activated DNA, dATP); type: biochemical; settings: calf thymus activated DNA as template-primer, dATP as substrate; read-out: DNA pol β Ki

Row | SMILES | activity compared with 3TC (lamivudine) [1] | viral load reduced to (level) [1] | viral rebound after withdrawal ([1]; post-treatment) | Ki [2] | Ki [3] | IC50 [4] | Ki [5]
1 | Nc1ncnc2c1ncn2[C@@H]1C[C@@H](O)[C@H](CO)O1 [β-L-dA, 2′-Deoxy-β-L-adenosine] | more active than 3TC (lamivudine) | nearly undetectable | – | – | – | – | –
2 | Cc1cn([C@@H]2C[C@@H](O)[C@H](CO)O2)c(=O)[nH]c1=O [β-L-dT, 2′-Deoxy-β-L-Thymidine] | more active than 3TC (lamivudine) | undetectable | not detected for at least two weeks | – | – | – | –
3 | Nc1ccn([C@@H]2C[C@@H](O)[C@H](COP(=O)(O)OP(=O)(O)OP(=O)(O)O)O2)c(=O)n1 [β-L-dC-TP] | – | – | – | > 100 µM | > 100 µM | 2 µM | > 100 µM
4 | O=c1ccn([C@@H]2C[C@@H](O)[C@H](COP(=O)(O)OP(=O)(O)OP(=O)(O)O)O2)c(=O)[nH]1 [β-L-dU-TP] | – | – | – | > 100 µM | > 100 µM | 8 µM | > 100 µM
5 | Cc1cn([C@@H]2C[C@@H](O)[C@H](COP(=O)(O)OP(=O)(O)OP(=O)(O)O)O2)c(=O)[nH]c1=O [β-L-dT-TP] | – | – | – | > 100 µM | > 100 µM | 0.34 µM | > 100 µM
6 | Nc1ccn([C@@H]2C[C@@H](O)[C@H](CO)O2)c(=O)n1 [β-L-dC, 2′-Deoxy-β-L-cytidine] | more active than 3TC (lamivudine) | nearly undetectable | – | – | – | – | –
7 | Nc1ncnc2c1ncn2[C@@H]1C[C@@H](O)[C@H](COP(=O)(O)OP(=O)(O)OP(=O)(O)O)O1 [β-L-dA-TP] | – | – | – | – | > 100 µM | 2.3 µM | > 100 µM

Source: patent publication US6566344B1, “β-L-2′-deoxy-nucleosides for the treatment of hepatitis B” (priority 1998, dated 2003)
